Reference: patent publication US6054429A (priority 1996, dated 2000)

tested on: formalin flinch response in rats; settings: rat, in vivo

Question: For COCCOC(=O)C1=C(C)NC(C)=C(C(=O)OC(C)C)C1c1cccc([N+](=O)[O-])c1 (centres unmarked) [nimodipine], which “effect on Phase 1 response (in words)” value is on record?
Answer: The value was “without effect”.

Question: And the “effect on Phase 2 response (in words)” value?
Answer: Its value is “without effect”.

Question: COc1ccc(CCN(C)CCCC(C#N)(c2ccc(OC)c(OC)c2)C(C)C)cc1OC (centres unmarked) [verapamil] was tested. Which “effect on Phase 1 response (in words)” value did it give?
Answer: Its value is “without effect”.

Question: And the “effect on Phase 2 response (in words)” value?
Answer: The value was “without effect”.

Question: With COC(=O)C1=C(C)NC(C)=C(C(=O)OC)C1c1ccccc1[N+](=O)[O-] [nifedipine] as the molecule, how does the “effect on Phase 1 response (in words)” value read?
Answer: Its value is “without effect”.

Question: And the “effect on Phase 2 response (in words)” value?
Answer: The value was “without effect”.

Question: How did the “effect on Phase 1 response (in words)” value turn out when COc1ccc([C@@H]2Sc3ccccc3N(CCN(C)C)C(=O)[C@@H]2OC(C)=O)cc1 [diltiazem] was run?
Answer: The value was “without effect”.

Question: What about the “effect on Phase 2 response (in words)” value of the same molecule?
Answer: The value was “without effect”.
